According to ChEMBL document CHEMBL4828721, “Substituted dienes prepared from betulinic acid - Synthesis, cytotoxicity, mechanism of action, and pharmacological parameters” (Eur J Med Chem, 2021):

Experiments:
[1] = Cytotoxicity against human HCT116 p53-null cells assessed as reduction in cell viability measured after 72 hrs by MTS assay; assay type: functional, cell-based
[2] = system: HCT-116; assay: Cytotoxicity against human HCT-116 cells assessed as reduction in cell viability measured after 72 hrs by MTS assay; assay type: functional, cell-based; conditions: HCT-116, 72 h
[3] = system: K562; assay: Cytotoxicity against human K562 cells assessed as reduction in cell viability measured after 72 hrs by MTS assay; assay type: functional, cell-based; conditions: K562, 72 h
[4] = Cytotoxicity against paclitaxel resistant human K562-Tax cells assessed as reduction in cell viability measured after 72 hrs by MTS assay; assay type: functional, cell-based
[5] = system: U2OS; assay: Cytotoxicity against human U2OS cells assessed as reduction in cell viability measured after 72 hrs by MTS assay; assay type: functional, cell-based
[6] = system: BJ; assay: Cytotoxicity against human BJ cells assessed as reduction in cell viability measured after 72 hrs by MTS assay; assay type: cell-based
[7] = system: A549; assay: Cytotoxicity against human A549 cells assessed as reduction in cell viability measured after 72 hrs by MTS assay; assay type: functional, cell-based; conditions: A549, 72 h
[8] = system: MRC5; assay: Cytotoxicity against human MRC5 cells assessed as reduction in cell viability measured after 72 hrs by MTS assay; assay type: cell-based; conditions: MRC5, 72 h
[9] = system: CEM-DNR; assay: Cytotoxicity against daunorubicin resistant human CEM-DNR cells assessed as reduction in cell viability measured after 72 hrs by MTS assay; assay type: functional, cell-based
[10] = system: CCRF-CEM; assay: Cytotoxicity against human CCRF-CEM cells assessed as reduction in cell viability measured after 72 hrs by MTS assay; assay type: functional, cell-based

Compound	IC50 [1]	IC50 [2]	IC50 [3]	IC50 [4]	IC50 [5]	IC50 [6]	IC50 [7]	IC50 [8]	IC50 [9]	IC50 [10]
C=C(/C=C/c1cccc(C#N)c1)[C@@H]1CC[C@]2(C(=O)O)CC[C@]3(C)[C@H](CC[C@@H]4[C@@]5(C)CC[C@H](O)C(C)(C)[C@@H]5CC[C@]43C)[C@@H]12	29.4 µM	35.1 µM	> 50 µM	22.7 µM	> 50 µM	> 50 µM	> 50 µM	> 50 µM	21.6 µM	12.1 µM
C=C(/C=C/c1cccc([N+](=O)[O-])c1)[C@@H]1CC[C@]2(C(=O)O)CC[C@]3(C)[C@H](CC[C@@H]4[C@@]5(C)CC[C@H](O)C(C)(C)[C@@H]5CC[C@]43C)[C@@H]12	35.5 µM	37.5 µM	> 50 µM	24.3 µM	29.3 µM	> 50 µM	48.8 µM	45.1 µM	25.3 µM	12.4 µM
C=C(/C=C/c1ccc(Br)cc1F)[C@@H]1CC[C@]2(C(=O)O)CC[C@]3(C)[C@H](CC[C@@H]4[C@@]5(C)CC[C@H](O)C(C)(C)[C@@H]5CC[C@]43C)[C@@H]12	33.6 µM	33.5 µM	26 µM	> 50 µM	29.7 µM	43 µM	32.5 µM	33.7 µM	> 50 µM	22.4 µM
C=C(/C=C/c1cccnc1)[C@@H]1CC[C@]2(C(=O)O)CC[C@]3(C)[C@H](CC[C@@H]4[C@@]5(C)CC[C@H](O)C(C)(C)[C@@H]5CC[C@]43C)[C@@H]12	32.8 µM	30.9 µM	> 50 µM	14.2 µM	30.9 µM	> 50 µM	26.2 µM	> 50 µM	17.4 µM	11.3 µM
C=C(/C=C/c1ccc(Br)cc1)[C@@H]1CC[C@]2(C(=O)O)CC[C@]3(C)[C@H](CC[C@@H]4[C@@]5(C)CC[C@H](O)C(C)(C)[C@@H]5CC[C@]43C)[C@@H]12	31.8 µM	33.2 µM	> 50 µM	29.3 µM	27 µM	> 50 µM	> 50 µM	35.2 µM	28.9 µM	6.5 µM
C=C(/C=C/c1ccccn1)[C@@H]1CC[C@]2(C(=O)O)CC[C@]3(C)[C@H](CC[C@@H]4[C@@]5(C)CC[C@H](O)C(C)(C)[C@@H]5CC[C@]43C)[C@@H]12	> 50 µM	> 50 µM	> 50 µM	29.2 µM	> 50 µM	> 50 µM	> 50 µM	> 50 µM	27.7 µM	19.7 µM
C=C(/C=C/c1cccc(F)c1)[C@@H]1CC[C@]2(C(=O)O)CC[C@]3(C)[C@H](CC[C@@H]4[C@@]5(C)CC[C@H](O)C(C)(C)[C@@H]5CC[C@]43C)[C@@H]12	21 µM	23 µM	21.6 µM	21.9 µM	27.7 µM	41.5 µM	28.7 µM	32.1 µM	23.1 µM	11.7 µM
C=C(/C=C/c1ccc(C#N)cc1)[C@@H]1CC[C@]2(C(=O)O)CC[C@]3(C)[C@H](CC[C@@H]4[C@@]5(C)CC[C@H](O)C(C)(C)[C@@H]5CC[C@]43C)[C@@H]12	43.3 µM	39.1 µM	> 50 µM	27.2 µM	44.1 µM	> 50 µM	> 50 µM	49.7 µM	27 µM	23.8 µM
C=C(/C=C/c1ccccc1C)[C@@H]1CC[C@]2(C(=O)O)CC[C@]3(C)[C@H](CC[C@@H]4[C@@]5(C)CC[C@H](O)C(C)(C)[C@@H]5CC[C@]43C)[C@@H]12	25.9 µM	29.7 µM	28.1 µM	25.9 µM	28 µM	33 µM	26.8 µM	31.5 µM	22.8 µM	19.1 µM
C=C(/C=C/c1ccc(C)cc1)[C@@H]1CC[C@]2(C(=O)O)CC[C@]3(C)[C@H](CC[C@@H]4[C@@]5(C)CC[C@H](O)C(C)(C)[C@@H]5CC[C@]43C)[C@@H]12	18.2 µM	21.4 µM	> 50 µM	26.3 µM	> 50 µM	> 50 µM	> 50 µM	> 50 µM	26.1 µM	5.9 µM
C=C(/C=C/c1ccccc1Br)[C@@H]1CC[C@]2(C(=O)O)CC[C@]3(C)[C@H](CC[C@@H]4[C@@]5(C)CC[C@H](O)C(C)(C)[C@@H]5CC[C@]43C)[C@@H]12	24.5 µM	27.2 µM	21.6 µM	47.9 µM	27.8 µM	46.7 µM	28.6 µM	35.3 µM	49.1 µM	16.8 µM
C=C(/C=C/c1ccccc1[N+](=O)[O-])[C@@H]1CC[C@]2(C(=O)O)CC[C@]3(C)[C@H](CC[C@@H]4[C@@]5(C)CC[C@H](O)C(C)(C)[C@@H]5CC[C@]43C)[C@@H]12	39.3 µM	34.8 µM	> 50 µM	29.8 µM	33.1 µM	> 50 µM	45.2 µM	> 50 µM	30.6 µM	23.7 µM
C=C(/C=C/c1ccc(C(C)(C)C)cc1)[C@@H]1CC[C@]2(C(=O)O)CC[C@]3(C)[C@H](CC[C@@H]4[C@@]5(C)CC[C@H](O)C(C)(C)[C@@H]5CC[C@]43C)[C@@H]12	> 50 µM	> 50 µM	> 50 µM	> 50 µM	45.1 µM	> 50 µM	> 50 µM	> 50 µM	> 50 µM	45.6 µM
C=C(/C=C/c1ccc(OC)cc1)[C@@H]1CC[C@]2(C(=O)O)CC[C@]3(C)[C@H](CC[C@@H]4[C@@]5(C)CC[C@H](O)C(C)(C)[C@@H]5CC[C@]43C)[C@@H]12	48.9 µM	42.4 µM	> 50 µM	48.6 µM	48.6 µM	> 50 µM	> 50 µM	> 50 µM	> 50 µM	20.9 µM
C=CC(=C)[C@@H]1CC[C@]2(C(=O)O)CC[C@]3(C)[C@H](CC[C@@H]4[C@@]5(C)CC[C@H](O)C(C)(C)[C@@H]5CC[C@]43C)[C@@H]12	24.3 µM	24.1 µM	15.7 µM	26.2 µM	24.1 µM	44.6 µM	23.9 µM	24.3 µM	25.1 µM	11.1 µM
C=C(/C=C/c1ccccc1Cl)[C@@H]1CC[C@]2(C(=O)O)CC[C@]3(C)[C@H](CC[C@@H]4[C@@]5(C)CC[C@H](O)C(C)(C)[C@@H]5CC[C@]43C)[C@@H]12	24.8 µM	26.6 µM	23.9 µM	39.3 µM	28.1 µM	42.3 µM	29.4 µM	32.6 µM	42.1 µM	18.7 µM
C=C(/C=C/c1ccc(I)cc1)[C@@H]1CC[C@]2(C(=O)O)CC[C@]3(C)[C@H](CC[C@@H]4[C@@]5(C)CC[C@H](O)C(C)(C)[C@@H]5CC[C@]43C)[C@@H]12	33.3 µM	30.7 µM	> 50 µM	> 50 µM	32.2 µM	> 50 µM	> 50 µM	41.2 µM	> 50 µM	16 µM
C=C(/C=C/c1cccc(OC)c1)[C@@H]1CC[C@]2(C(=O)O)CC[C@]3(C)[C@H](CC[C@@H]4[C@@]5(C)CC[C@H](O)C(C)(C)[C@@H]5CC[C@]43C)[C@@H]12	39.6 µM	34.6 µM	41.4 µM	25.6 µM	25.2 µM	> 50 µM	40.1 µM	44.1 µM	30.6 µM	4.6 µM
C=C(/C=C/c1ccc(F)c(Cl)c1)[C@@H]1CC[C@]2(C(=O)O)CC[C@]3(C)[C@H](CC[C@@H]4[C@@]5(C)CC[C@H](O)C(C)(C)[C@@H]5CC[C@]43C)[C@@H]12	20.8 µM	21.8 µM	40.6 µM	25.2 µM	26.5 µM	> 50 µM	45.5 µM	32.4 µM	27.8 µM	5.5 µM
C=C(/C=C/c1ccccc1F)[C@@H]1CC[C@]2(C(=O)O)CC[C@]3(C)[C@H](CC[C@@H]4[C@@]5(C)CC[C@H](O)C(C)(C)[C@@H]5CC[C@]43C)[C@@H]12	22.6 µM	24.5 µM	21.8 µM	25.1 µM	27.7 µM	42.1 µM	29.7 µM	31.7 µM	23.2 µM	15.4 µM
C=C(C=O)[C@@H]1CC[C@]2(C(=O)O)CC[C@]3(C)[C@H](CC[C@@H]4[C@@]5(C)CC[C@H](O)C(C)(C)[C@@H]5CC[C@]43C)[C@@H]12	1.9 µM	1.9 µM	3.4 µM	1.3 µM	1.3 µM	6.7 µM	> 50 µM	2.6 µM	3.8 µM	0.8 µM
